# Assay results as given in US20250041312A1, “METHODS OF ADMINISTERING A MODULATOR OF HEMOGLOBIN” (Global Blood Therapeutics, Inc., priority 2021, published 2025).
# Like-named read-outs stand apart in the source and are kept apart here. Marks after values point to notes of the source that are not given here.
# Experiments:
# [1] = Single ascending dose (SAD) study in healthy volunteers: safety and tolerability (TEAEs); format: in vivo, human
# Method: To evaluate the safety and tolerability of single ascending doses of Compound I, 48 healthy volunteers (42 in the fasted state and 6 in the fed state) aged 18 to 55 years old were administered single ascending doses (50 mg to 2200 mg) of Compound I, while 16 healthy volunteers (14 in the fasted state and 2 in the fed state) aged 18 to 55 years old were administered placebo in a double blind, randomized, sequential manner.
# Primary endpoints were safety and tolerability; key secondary endpoints included PK and effect of food (high-fat meal).
# The few that were considered drug-related resolved with little to no intervention.
# [2] = biological target: T1, hemoglobin (Homo sapiens, UniProt P68871+P69905, E7V); assay: Percent Hb occupancy in SCD patients (single dose, MAD-1, MAD-2, MAD-3); format: in vivo; conditions: for receptor occupancy at 150 mg / receptor occupancy at 50 mg / receptor occupancy at 100 mg: human; for receptor occupancy at 50 mg: 50 mg QD × 5 weeks (MAD-1); for receptor occupancy at 100 mg: 100 mg QD × 3 weeks (MAD-2)
# T1 construct: divided by the molar concentration of hemoglobin in RBCs; endogenous in cells; host or cells: red blood cells / blood of patients with SCD (HbSS)
# Method: In some embodiments, the therapeutically effective amount is determined by measuring the percent of hemoglobin occupied by the compound, i.e., the percent Hb occupancy. The percent Hb occupancy is a measure of target engagement defined as the percentage of hemoglobin bound by a compound (e.g., Compound I) calculated as the molar concentration of the compound (e.g., Compound I) in RBCs divided by the molar concentration of hemoglobin in RBCs (the mean corpuscular hemoglobin concentration calculated from the hematology panel). The values for concentration of a compound (e.g., Compound I) in RBCs is calculated from the concentrations in whole blood and plasma, and the hematocrit.
# After a washout period of at least 56 days (so that elimination PK of Compound I could be assessed), the patients were administered a loading dose of 300 mg per day of Compound I for one day followed by 200 mg per day of Compound I for one day, and then were administered a maintenance dose of 50 mg per day of Compound I for five weeks (“MAD-1 Cohort”). The same patients then received another loading dose of 500 mg per day of Compound I for one day followed by 400 mg per day of Compound I for one day, and then were administered another maintenance dose of 100 mg per day of Compound I for three weeks (“MAD-2 Cohort”). The total treatment period of the MAD-1 Cohort and MAD-2 Cohort was 8 weeks.
# Following the conclusion of the MAD-2 study and a washout period of about 8 months, the selected patients (n=4) were administered a loading dose of 300 mg BID for 4 days, followed thereafter by a maintenance dose of 150 mg QD (MAD-3 Cohort).
# [3] = MAD study in healthy volunteers: whole blood and plasma PK; format: in vivo, human; conditions: for AUC(0-t): read-out: AUC0-24; for concentration at 14 day: read-out: Cmin
# Method: Another study was initiated in healthy volunteer aged 18-55 years old to evaluate the safety and tolerability of multiple ascending doses of Compound I. Four cohorts of 10 subjects each (n=7 Compound I, n=3 placebo) were evaluated in a sequential double-blind manner. To reach steady state levels each subject received a loading dose regimen for 3 or 4 days followed by once daily medication for up to 14 days. Primary endpoints were safety and tolerability; key secondary endpoints included PK and effect on electrocardiogram (ECG) parameters. Table 7 below provides an overview of the doses of Compound I or placebo that were used in each cohort.
# Preliminary whole blood PK parameters (geometric mean and % CV) and hemoglobin occupancy in healthy volunteers of the 15 mg, 25 mg, 50 mg, and 75 mg MAD cohorts are summarized in Table 10.
# [4] = HV single 50 mg, blinded, n=8 incl. placebo
# [5] = HV single 50 mg, unblinded, n=6
# [6] = HV single 100 mg, blinded, n=8 incl. placebo
# [7] = HV single 100 mg, unblinded, n=6
# [8] = HV single 200 mg fed (high-fat meal), blinded, n=8 incl. placebo
# [9] = HV single 200 mg fed (high-fat meal), unblinded, n=6
# [10] = HV single 200 mg, blinded, n=8 incl. placebo
# [11] = HV single 200 mg, unblinded, n=6
# [12] = HV single 400 mg, blinded, n=8 incl. placebo
# [13] = HV single 400 mg, unblinded, n=6
# [14] = HV single 800 mg, blinded, n=8 incl. placebo
# [15] = HV single 800 mg, unblinded, n=6
# [16] = HV single 1400 mg, blinded, n=8 incl. placebo
# [17] = HV single 1400 mg, unblinded, n=6
# [18] = HV single 2200 mg, blinded, n=8 incl. placebo
# [19] = HV single 2200 mg, unblinded, n=6
# [20] = SCD, read-out: Hemoglobin Occupancy (%) at Cmax, mean
# [21] = SCD, read-out: Hemoglobin Occupancy (%) at Cmin, mean
structure (smiles),measurement,setting,value
"O=Cc1c(O)cccc1OC[C@@H]1COCCN1C(=O)c1cccnc1CCO [Compound I, (S)-2-hydroxy-6-((4-(2-(2-hydroxyethyl)nicotinoyl)morpholin-3-yl)methoxy)benzaldehyde]",adverse events indicative of tissue hypoxia,[1]; HV SAD,no adverse events indicative of tissue hypoxia
same,grade of adverse events (CTCAE v5.0),"[1]; HV SAD, blinded study",mostly grade 1 or 2
same,Number of SAEs,[1]; [4],0
same,Number of TEAEs,[1]; [4],14
same,Number of TEAEs grade ≥ 3,[1]; [4],0
same,Number of TEAEs leading to study drug discontinuation,[1]; [4],0
same,Number of drug-related TEAEs,[1]; [4],2
same,Number of SAEs,[1]; [5],0
same,Number of TEAEs,[1]; [5],11
same,Number of TEAEs grade ≥ 3,[1]; [5],0
same,Number of TEAEs leading to study drug discontinuation,[1]; [5],0
same,Number of drug-related TEAEs,[1]; [5],1
same,Number of SAEs,[1]; [6],0
same,Number of TEAEs,[1]; [6],13
same,Number of TEAEs grade ≥ 3,[1]; [6],0
same,Number of TEAEs leading to study drug discontinuation,[1]; [6],0
same,Number of drug-related TEAEs,[1]; [6],1
same,Number of SAEs,[1]; [7],0
same,Number of TEAEs,[1]; [7],10
same,Number of TEAEs grade ≥ 3,[1]; [7],0
same,Number of TEAEs leading to study drug discontinuation,[1]; [7],0
same,Number of drug-related TEAEs,[1]; [7],1
same,Number of SAEs,[1]; [8],0
same,Number of TEAEs,[1]; [8],8
same,Number of TEAEs grade ≥ 3,[1]; [8],1
same,Number of TEAEs leading to study drug discontinuation,[1]; [8],0
same,Number of drug-related TEAEs,[1]; [8],0
same,Number of SAEs,[1]; [9],0
same,Number of TEAEs,[1]; [9],7
same,Number of TEAEs grade ≥ 3,[1]; [9],1
same,Number of TEAEs leading to study drug discontinuation,[1]; [9],0
same,Number of drug-related TEAEs,[1]; [9],0
same,Number of SAEs,[1]; [10],0
same,Number of TEAEs,[1]; [10],16
same,Number of TEAEs grade ≥ 3,[1]; [10],0
same,Number of TEAEs leading to study drug discontinuation,[1]; [10],0
same,Number of drug-related TEAEs,[1]; [10],0
same,Number of SAEs,[1]; [11],0
same,Number of TEAEs,[1]; [11],15
same,Number of TEAEs grade ≥ 3,[1]; [11],0
same,Number of TEAEs leading to study drug discontinuation,[1]; [11],0
same,Number of drug-related TEAEs,[1]; [11],0
same,Number of TEAEs,[1]; [12],23^
same,Number of TEAEs grade ≥ 3,[1]; [12],1^
same,Number of TEAEs leading to study drug discontinuation,[1]; [12],0^
same,Number of drug-related TEAEs,[1]; [12],1^
same,Number of SAEs,"[1]; HV single 400 mg, blinded, n=8 incl. placebo, SAE was a traumatic brain injury, not drug related",1^c
same,Number of TEAEs,[1]; [13],16^
same,Number of TEAEs grade ≥ 3,[1]; [13],1^
same,Number of TEAEs leading to study drug discontinuation,[1]; [13],0^
same,Number of drug-related TEAEs,[1]; [13],1^
same,Number of SAEs,"[1]; HV single 400 mg, unblinded, n=6, SAE was a traumatic brain injury, not drug related",1^c
same,Number of SAEs,[1]; [14],0
same,Number of TEAEs,[1]; [14],14
same,Number of TEAEs grade ≥ 3,[1]; [14],0
same,Number of TEAEs leading to study drug discontinuation,[1]; [14],0
same,Number of drug-related TEAEs,[1]; [14],3
same,Number of SAEs,[1]; [15],0
same,Number of TEAEs,[1]; [15],10
same,Number of TEAEs grade ≥ 3,[1]; [15],0
same,Number of TEAEs leading to study drug discontinuation,[1]; [15],0
same,Number of drug-related TEAEs,[1]; [15],3
same,Number of SAEs,[1]; [16],0
same,Number of TEAEs,[1]; [16],29
same,Number of TEAEs grade ≥ 3,[1]; [16],0
same,Number of TEAEs leading to study drug discontinuation,[1]; [16],0
same,Number of drug-related TEAEs,[1]; [16],4
same,Number of SAEs,[1]; [17],0
same,Number of TEAEs,[1]; [17],26
same,Number of TEAEs grade ≥ 3,[1]; [17],0
same,Number of TEAEs leading to study drug discontinuation,[1]; [17],0
same,Number of drug-related TEAEs,[1]; [17],4
same,Number of SAEs,[1]; [18],0
same,Number of TEAEs,[1]; [18],17
same,Number of TEAEs grade ≥ 3,[1]; [18],0
same,Number of TEAEs leading to study drug discontinuation,[1]; [18],0
same,Number of drug-related TEAEs,[1]; [18],4
same,Number of SAEs,[1]; [19],0
same,Number of TEAEs,[1]; [19],18
same,Number of TEAEs grade ≥ 3,[1]; [19],0
same,Number of TEAEs leading to study drug discontinuation,[1]; [19],0
same,Number of drug-related TEAEs,[1]; [19],4
same,% Hb occupancy based on Cmax,"[2]; SCD single 100 mg, mean",3.3%
same,patients who achieved Hb occupancy >40%,"[2]; SCD, 100 mg dose level",two out of six
same,mean Hb occupancy,"[2]; adults with SCD, maintenance doses 100 mg and 150 mg QD",> 30%
same,receptor occupancy at 150 mg,"[2]; MAD-3 (150 mg QD) week 6, SCD patient 0001",48%
same,receptor occupancy at 150 mg,"[2]; MAD-3 (150 mg QD) week 6, SCD patient 0003 (did not adhere to regimen)",7%
same,receptor occupancy at 150 mg,"[2]; MAD-3 (150 mg QD) week 6, SCD patient 0004 (Hb and hematocrit increases lower the occupancy value)",31%
same,receptor occupancy at 150 mg,"[2]; MAD-3 (150 mg QD) week 6, SCD patient 0005",46%
same,receptor occupancy at 50 mg,[2]; [20],17.7%
same,receptor occupancy at 50 mg,[2]; [21],15.3%
same,receptor occupancy at 100 mg,[2]; [20],32.6%
same,receptor occupancy at 100 mg,[2]; [21],29.8%
same,B:P ratio (mean AUC0-24 blood:mean AUC0-24 plasma),"[3]; HV MAD Day 14, 75 mg QD maintenance",140
same,AUC(0-t),"[3]; human, HV MAD Day 14, 15 mg QD maintenance, whole blood",2840 µg·h/mL
same,concentration at 14 day,"[3]; human, HV MAD Day 14, 25 mg QD maintenance, whole blood",135 µg/mL
same,Tmax,"[3]; human, HV MAD Day 14, 50 mg QD maintenance, whole blood, median",3 h
same,AUC(0-t),"[3]; human, HV MAD Day 14, 50 mg QD maintenance, whole blood",5140 µg·h/mL
same,Cmax,"[3]; human, HV MAD Day 14, 75 mg QD maintenance (loading 500/500/500/400 mg), whole blood",308 µg/mL
same,concentration at 14 day,"[3]; human, HV MAD Day 14, 75 mg QD maintenance, whole blood",297 µg/mL
